Test results as given in PMC11207729, “Unveiling Anticancer Potential of COX-2 and 5-LOX Inhibitors: Cytotoxicity, Radiosensitization Potential and Antimigratory Activity against Colorectal and Pancreatic Carcinoma” (Pharmaceutics, 2024).
Values joined by “and” are separate entries in the source; they are usually repeats but may differ in a detail not shown here. Equal values may be shown once.

Tests used:
HT-29 cells [1] = experiment: SRB assay, compound plus γ-radiation, HT-29; format: cell-based, human; settings: IC50 concentration 24 h before 2 Gy γ-radiation, SRB 72 h after irradiation
Experimental: In the experiments involving irradiation, cells were irradiated at room temperature, in the vertical position with the cell monolayer facing ^60Co γ-rays (CIRUS-Cis Biointernational). The irradiation of samples was performed in Vinča Institute of Nuclear Sciences, Belgrade, Serbia. In all experiments, a clinically relevant radiation dose of 2 Gy with the dose rate of ~1 Gy/min was applied.
For the evaluation of cell viability after treatments with radiation as well as after combined treatments, a sulforhodamine B (SRB) protein binding assay was used. This assay is based on the staining of cellular proteins. Maintaining conditions were identical to that of MTT assay. The cells were pretreated with IC50 concentrations of tested compounds for 24 h before irradiations. Following the 72 h post-irradiation incubation time under standard conditions (5% CO2, 37 °C) cells were fixed by protein precipitation with 10% trichloroacetic acid (TCA) at 4 °C for 1 h. Plates were rinsed with distillated water and stained with 0.4% SRB (Sigma-Aldrich Chemie GmbH, Steinheim, Germany) in 1% acetic acid, for 15 min at room temperature. Excess stain was removed by washing the wells in 1% acetic acid. After being rinsed, microwell plates were air dried until no staining moisture was visible. Bound dye was dissolved in 10 mM unbuffered Tris base (pH 10.5) for 5 min on a gyratory shaker. The absorbance of each well was measured using a microplate reader (Wallac VICTOR2 1420 Multilabel counter, PerkinElmer, Turku, Finland) at a test wavelength of 550 nm.

HT-29 cells [2] = experiment: MTT cytotoxicity assay, HT-29; format: cell-based, human; settings: for IC50: Homo sapiens, HT-29, MTT, 72 h after treatment, mean ± SEM; for Selectivity index (IC50 normal cell line/IC50 cancer cell lines), HT-29: MRC-5 / HT-29, in brackets
Experimental: (§1) SW620 cells were cultured in Dulbecco’s Modified Eagle’s medium (DMEM, Sigma-Aldrich Chemie GmbH, Steinheim, Germany) and supplemented in the same manner as the previously mentioned cell lines. Cells were grown in cell culture flasks T25 (Sarstedt AG & Co., Nümbrecht, Germany) at appropriate cell densities in the culture medium prior to exposure to treatments. Stock solutions of each compound, prepared in DMSO, were diluted in the culture medium to obtain the appropriate final concentrations.
(§2) The viability of the control and cells treated with the tested compounds was determined by MTT assay. Cells were seeded in 96-well plates at a density of 2000 cells/well, allowed to attach overnight, and then treated with rising concentrations of testing compounds. The ability of viable cells to reduce 3-(4,5-dimethylthiazol-2-yl)-2,5-diphenyltetrazolium bromide into blue-purple formazan crystals, was measured 72 h after the treatments. Namely, l mg/mL of MTT reagent (Sigma-Aldrich Chemie GmbH, Steinheim, Germany) was added to each well and incubated for an additional 4 h. Finally, upon removal of the medium containing MTT, 200 µL of DMSO was added to each well.

MRC-5 cells = experiment: MTT cytotoxicity assay, MRC-5 normal fibroblasts; format: cell-based, human; settings: for IC50: MTT, 72 h after treatment, mean ± SEM, healthy cell line; for Selectivity index, MRC-5: MRC-5 / MRC-5 (reference value), in brackets
SW620 cells [3] = experiment: Wound-healing assay; format: cell-based, human; settings: 25 μM; for Relative Wound Closure (%) 24 h: SW620, 24 h relative to T0, mean ± SEM, control 17.87 ± 3.48; for Relative Wound Closure (%) 48 h: SW620, 48 h relative to T0, mean ± SEM, control 24.51 ± 1.39
Experimental: The migratory potential of SW620 cells (human colon carcinoma cell line) was evaluated by a wound-healing assay. Cells were seeded in density of 300,000 cells per well in 24-well tissue culture microplates and grown for 24 h in DMEM medium supplemented with 10% FBS, penicillin/streptomycin and L-glutamine at 37 °C in a humidified atmosphere containing 5% CO2. Upon reaching confluence, a uniform wound was scratched into a monolayer of each well with a sterile plastic 200 μL micropipette tip. After wounding, the medium was replaced and cells were further treated with 25 μM of compounds 1, 2, 3, and 5 for 24 h and 48 h. Wound closure was monitored by imaging cells at 4× magnification using the ImageXpress® Pico Automated Cell Imaging System (Molecular Devices®, San Jose, CA, USA) immediately (T0), and at 24 h (T24) and 48 h (T48) after wounding. The captured images were analyzed by ImageJ software v. 1.52p (U.S. National Institutes of Health, Bethesda, MD, USA) to measure the degree of closure of the wounded area. Independent experiments were performed three times.

BxPC-3 cells = experiment: MTT cytotoxicity assay, BxPC-3; format: cell-based, human; settings: for IC50: MTT, 72 h after treatment, mean ± SEM; for Selectivity index (IC50 normal cell line/IC50 cancer cell lines), BxPC-3: MRC-5 / BxPC-3, in brackets
Experimental: as §1, §2

HCT 116 cells = experiment: MTT cytotoxicity assay, HCT 116; format: cell-based, human; settings: for IC50: Homo sapiens, HCT-116, MTT, 72 h after treatment, mean ± SEM; for Selectivity index (IC50 normal cell line/IC50 cancer cell lines), HCT 116: MRC-5 / HCT 116, in brackets
Experimental: as §1, §2

SW620 cells [4] = experiment: Cytotoxicity in SW620 cells after 24 h treatment (Table S2); format: cell-based; settings: Homo sapiens, SW-620, read-out: IC50 (µM) following 24h treatment in SW620 cells
SW620 cells [5] = settings: cited from earlier work

SMILES	cell proliferation, combined treatment versus radiation alone, HT-29 (HT-29 cells [1])	IC50 (HT-29 cells [2]) [µM]	Selectivity index (IC50 normal cell line/IC50 cancer cell lines), HT-29 (HT-29 cells [2])	IC50 (MRC-5 cells; Homo sapiens, MRC5, 72 h) [µM]	Relative Wound Closure (%) 24 h (SW620 cells [3])	Relative Wound Closure (%) 48 h (SW620 cells [3])	IC50 (BxPC-3 cells; Homo sapiens, BXPC-3, 72 h) [µM]	Selectivity index (IC50 normal cell line/IC50 cancer cell lines), BxPC-3 (BxPC-3 cells)	IC50 (HCT 116 cells) [µM]	Selectivity index (IC50 normal cell line/IC50 cancer cell lines), HCT 116 (HCT 116 cells)	IC50 (SW620 cells [4]) [µM]	Selectivity index, MRC-5 (MRC-5 cells)	migratory ability of SW620 cells (SW620 cells [5]; 400 μM, after 36 h)	antimigratory effects on SW620 cell line (SW620 cells [5]; 10 nM, after 24 h)	IC50 (MRC-5 cells) [µM]	IC50 (BxPC-3 cells) [µM]	antimigratory properties in SW620 cells (SW620 cells [5]; 30 μM, 48 h)
COC(=O)CNC(=O)c1cc(C(C)(C)C)c(O)c(C(C)(C)C)c1 [Compound 5]	significantly inactivated HT-29 cells	81.6 ± 2.77	> 1.22	> 100	7.12 ± 1.43%	9.11 ± 0.27%	41.2 ± 2.88	> 2.43	51.7 ± 1.78	> 1.94	132 ± 3.5	–	–	–	–	–	–
CCOc1ccccc1NC(=O)Nc1ccc([N+](=O)[O-])cc1 [Compound 10]	–	7.08 ± 0.3	2.64	18.7 ± 0.98	–	–	6.05 ± 1.68	3.09	9.3 ± 0.38	2.01	–	1	–	–	–	–	–
COc1ccc2c(c1)c(CNC(=O)NO)c(C)n2C(=O)c1ccc(Cl)cc1 [Compound 1]	–	9.78 ± 0.68	0.99	9.68 ± 2.34	3.20% and 3.20 ± 0.99%	5.08% and 5.08 ± 2.46%	12.8 ± 1.11	0.76	4.97 ± 0.78	1.95	215 ± 4.9	1	–	–	–	–	–
CC(=O)N(O)C(C)c1ccc(CC(C)C)cc1 (stereo not drawn) [Compound 11]	–	84.1 ± 3.43	0.68	57.1 ± 3.8	–	–	63 ± 3.8	0.91	82 ± 2.34	0.70	–	1	–	–	–	–	–
COc1ccc2c(c1)c(CC(=O)O)c(C)n2C(=O)c1ccc(Cl)cc1 [Indomethacin, reference compound]	–	89.5 ± 4.45	0.89	79.8 ± 5.9	–	–	85.9 ± 2.58	0.93	60.4 ± 4.27	1.32	–	1	significantly decreased the migratory ability	–	–	–	–
CC(C(=O)O)c1ccc(-c2ccccc2)c(F)c1 (stereo not drawn) [Flurbiprofen, reference compound]	–	> 100	–	> 100	–	–	> 100	–	> 100	–	–	–	–	significant antimigratory effects	–	–	–
O=C(O)Cc1ccccc1Nc1c(Cl)cccc1Cl [Diclofenac, reference compound]	–	75 ± 3.98	–	–	–	–	57.2 ± 3.03	–	79.1 ± 3.68	–	–	–	–	–	–	–	–
CC(NC(=O)NO)c1ccc(-c2ccccc2)c(F)c1 (stereo not drawn) [Compound 2]	–	82.4 ± 4.25	0.84	69.1 ± 3.07	7.47 ± 2.14%	11.61 ± 3.06%	48.7 ± 4.6	1.42	64.8 ± 2.76	1.07	386 ± 11.8	1	–	–	–	–	–
CC(C)(C)c1cc(/C=C2\SC(=S)N(N)C2=O)cc(C(C)(C)C)c1O [Compound 13]	–	12.4 ± 1.95	4.60	57.1 ± 3.8	–	–	1.8 ± 0.1	31.72	2.21 ± 0.12	25.84	–	1	–	–	–	–	–
COc1ccc2cc(C(C)N(O)C(C)=O)ccc2c1 (stereo not drawn) [Compound 12]	–	> 100	–	> 100	–	–	> 100	0.83	> 100	–	–	1	–	–	63.6 ± 9.04	76.7 ± 5.54	–
CN(C)C(=O)Nc1ccccc1C(=O)O [Compound 9]	–	> 100	–	> 100	–	–	> 100	–	> 100	–	–	–	–	–	–	–	–
CCOc1ccccc1NC(=O)N(C)C [Compound 8]	–	> 100	–	> 100	–	–	> 100	–	> 100	–	–	–	–	–	–	–	–
COC(=O)C(Cc1cnc[nH]1)NC(=O)c1cc(C(C)(C)C)c(O)c(C(C)(C)C)c1 (stereo not drawn) [Compound 4]	–	42.3 ± 2.57	0.84	35.4 ± 4.14	–	–	24.7 ± 2.01	1.43	29.5 ± 5.23	1.20	–	1	–	–	–	–	–
Cc1ccc(-c2cc(C(F)(F)F)nn2-c2ccc(S(N)(=O)=O)cc2)cc1 [celecoxib]	–	–	–	–	–	–	–	–	–	–	–	–	–	–	–	–	comparable efficacy to compounds 1, 2, 3 and 5
